Two compounds from patent US9423404B1, “Method of screening for an agent that enhances beige fat adipogenesis” (The Board of Trustees of the Leland Stanford Junior …, priority 2013, dated 2016) can be followed below.

Structures are written as SMILES.

The test system of assay [1] is differentiated human fibroblasts. Description: Lipolysis assay (glycerol release). The assay is classed as cell-based. The note with it: for increase in glycerol release compared to the undifferentiated cells: 10 μM isoproterenol 24 hrs. As for the experimental part: Lipolysis assay. To measure lipolysis activity, control and differentiated fibroblasts, were starved in DMEM containing 1% FBS overnight. Cells were then incubated for 24 hrs in HBSS (Hank's balanced salt solution) containing 2% fatty-acid-free BSA and 10 μM isoproterenol. The culture medium was collected for glycerol measurement using the free glycerol reagent (Sigma, St. Louis, Mo.).

Assay [2] concerns CYP24A1. As to the kind of experiment: RT-qPCR of CYP24A1 (24-hydroxylase), marker of calcitriol responsiveness. The assay is classed as cell-based, human. The settings on record: H305Q mutant, 10 nM calcitriol, ex vivo. How it is done: FIG. 3. […] (A) Control and HVDRR fibroblasts were treated with vehicle (0.1% ethanol) or 10 nM calcitriol for 6 hr. RT-qPCR assays were carried out for CYP24A1 a marker of calcitriol responsiveness. DM denotes double mutant with H305Q mutation in the VDR and BSCL2 mutation. […] Relative gene expression of UCP1 in WT and HVDRR fibroblasts differentiated with DIMR or DIMR plus 10 nM calcitriol for 14 days.
Real-time RT-PCR. […] RNA was isolated using RNeasy Plus Mini Kit (Qiagen, Valencia, Calif.). cDNA was prepared using Maxima Universal First Strand cDNA Synthesis kit (Fisher Scientific, Pittsburgh, Pa.). Real time PCR was performed using the DyNAmo ColorFlash qPCR kit (Fisher Scientific). Relative changes in mRNA expression were assessed by the 2-ΔΔC(T) method and normalized to that of the reference gene glyceraldehyde phosphate dehydrogenase (GAPDH). The values from vehicle treated normal control fibroblasts were set at 1. Assays were performed in triplicate.
In general terms: Quantitative PCR measures a nucleic acid by following its amplification.

Regarding `CC(C)NCC(O)c1ccc(O)c(O)c1` (stereo not shown) [isoproterenol], in assay [1] (H305Q/BSCL2 double mutant), the “induction of lipolysis compared to the H305Q single mutant” value was “significantly less induction of lipolysis”. In addition, the figures for the “increase in glycerol release compared to the undifferentiated cells” value in assay [1] (HVDRR cells differentiated with DIMR) and in assay [1] (WT control cells differentiated with DIMR) were 1.5-4 fold and 2.5 fold, respectively.
Regarding `C=C1/C(=C\C=C2/CCC[C@]3(C)[C@@H]([C@H](C)CCCC(C)(C)O)CC[C@@H]23)C[C@@H](O)C[C@@H]1O` [calcitriol], the “induction of 24-hydroxylase (CYP24A1) expression by VDR” value in assay [2] was “rescues the induction”.
